The test system of assay [1] is Candida sp. Description: Minimum inhibitory concentration (MIC), disk diffusion method. The note with it: disks of 50 to 3.12 µg, 42-120 hrs at room temperature. It is filed as cell-based. An excerpt: (§1) Agar: Czapek Malt Agar (Himedia laboratories Ltd.) was used for culturing Microsporum gypseum, Trichophyton mentagrophytes T. tonsurans, T. violaceum, Aspergillus fresenii and A. niger. Mycological Agar (Himedia Laboratories Ltd) was used for Cryptococcus neoformans and Candida sp.
(§2) Pathogenic fungal strains of yeast and filamentous fungi identified and gifted by Dr. Savio from Goa Medical College, Bambolim, were used for the test. Strains of Aspergillus were isolated from the infected wheat bread with sterile needle; fungal material was surface sterilized using 0.5 % sodium hypochlorite for 2-3 minutes, and then washed with small brush in sterile distilled water. Washed fungal material was transferred using needle into the sterile culture media and subcultured for purification by following standard methods (Collins and Taylor, 1967). Taxonomic identification was done by using various standard keys (Ainswort et al., 1973; Onion et al., 1981) and identification confirmed by Alka Pandey of Agarkar Research Institute, Pune.
(§3) Yeast strains (Candida sp. and Cryptococcus neoformans) were maintained by single colony transfer on mycological agar (Himedia Laboratories Ltd) at the refrigeration temperature (3-5°C). Filamentous fungi were maintained on Czapek Malt agar slants at refrigeration temperature (3-5°C), until needed for the assay.
(§4) Innocula were adjusted to 100 µl of Cryptococcus neoformans, Candida sp., Microsporum gypseum, Trichophyton tonsurans, T. violaceum and Trichophyton mentagrophytes and spread on the appropriate plates, excess moisture was allowed to absorb for 10 minutes before applying disks. Immediately prior to the assay, the testing compound of formula 1, object of the present invention, the reference compounds amphotericin B and nystatin, potency approx:750µ/mg and 4800USPunit/mg respectively, were reconstituted in triplicate in dimethylsulfoxide. […] From the stock solution 10 µl were spread on the paper disk so as to obtain final concentration of 50 µg disc^-1, 25µg disc^-1, 12.5 µg disc^-1, 6.25 µg disc^-1 and 3.12 µg disk^-1. Disks were dried at reduced pressure in the dessicator, at 28-29°C and applied to inoculated plates.
(§5) In testing, the compound of formula 1 was reconstituted in dimethylsulfoxide (DMSO) immediately prior to all assays. Dimethylsulfoxide (DMSO) alone had no detectable inhibitory effect on any of the tested microbes. Compound of formula 1 was tested against a diverse collection of yeast and filamentous fungi, some of which are resistant to the reference compound nystatin. Filamentous fungi were nystatin resistant.

The subject of assay [2] is Cryptococcus neoformans. The assay is described as above. The note with it: disks of 50 to 3.12 µg, 42-120 hrs at room temperature. It is filed as cell-based.
Description: as §1, §2, §3, §4, §5

Assay [3] concerns Microsporum gypseum. Described as above. It is filed as cell-based. The note with it: disks of 50 to 3.12 µg, 42-120 hrs at room temperature.
Description: as §1, §2, §3, §4, §5

In assay [4] the test system is Aspergillus fresenii. The description is as above. It is filed as cell-based. The note with it: disks of 50 to 3.12 µg, 42-120 hrs at room temperature.
Description: as §1, §2, §3, §4, §5

Assay [5] relates to T. tonsurans. The description is as above. The note with it: disks of 50 to 3.12 µg, 42-120 hrs at room temperature. The format is cell-based.
Description: as §1, §2, §3, §4, §5

The test system of assay [6] is Trichophyton mentagrophytes. The assay is described as above. The note with it: disks of 50 to 3.12 µg, 42-120 hrs at room temperature. The format is cell-based.
Description: as §1, §2, §3, §4, §5

The subject of assay [7] is T. violaceum. The description is as above. The format is cell-based. The note with it: disks of 50 to 3.12 µg, 42-120 hrs at room temperature.
Description: as §1, §2, §3, §4, §5

In assay [8] the test system is Candida sp. Description: Disk diffusion assay, zone of inhibition. The note with it: 250 µg. disk^-1, incubated 42-120 hrs at room temperature. It is filed as cell-based.
Description: as §1, §2, §3
(§6) Disk diffusion assay: The disk diffusion assay was used for screening of antifungal activity of the compound. The stock solution for the test was prepared by dissolving 5 mg of the compound of formula 1 in 200 µl dimethylsulphoxide (DMSO). From the stock solution 10 µl were spread on the paper disc so as to obtain the final concentration of 250 µg disk^-1. Control disk was applied reconstituted with only dimethylsulphoxide and were dried at 28-29°C. Completely dried disk was applied to innoculated plates. The plates were incubated at room temperature for the period between 42- 120 hrs. to obtain maximum growth in the culture media. The zones of inhibition around the disks were measured.

Assay [9] concerns Cryptococcus neoformans. In words: Disk diffusion assay, zone of inhibition. The format is cell-based. The note with it: 250 µg. disk^-1, incubated 42-120 hrs at room temperature.
Description: as §1, §2, §3, §6

Assay [10] has as its system Microsporum gypseum. In words: Disk diffusion assay, zone of inhibition. The note with it: 250 µg. disk^-1, incubated 42-120 hrs at room temperature. It is filed as cell-based.
Description: as §1, §2, §3, §6

Assay [11] has as its system Aspergillus fresenii. Description: Disk diffusion assay, zone of inhibition. It is filed as cell-based. The note with it: 250 µg. disk^-1, incubated 42-120 hrs at room temperature.
Description: as §1, §2, §3, §6

In assay [12] the test system is T. tonsurans. Description: Disk diffusion assay, zone of inhibition. It is filed as cell-based. The note with it: 250 µg. disk^-1, incubated 42-120 hrs at room temperature.
Description: as §1, §2, §3, §6

Assay [13] concerns Trichophyton mentagrophytes. In words: Disk diffusion assay, zone of inhibition. It is filed as cell-based. The note with it: 250 µg. disk^-1, incubated 42-120 hrs at room temperature.
Description: as §1, §2, §3, §6

Assay [14] concerns T. violaceum. Description: Disk diffusion assay, zone of inhibition. The format is cell-based. The note with it: 250 µg. disk^-1, incubated 42-120 hrs at room temperature.
Description: as §1, §2, §3, §6

In assay [15] the test system is Aspergillus niger. In words: Disk diffusion assay, zone of inhibition. The format is cell-based. The note with it: 250 µg. disk^-1, incubated 42-120 hrs at room temperature.
Description: as §1, §2, §3, §6

Assay [16] relates to Aspergillus niger. Description: Minimum inhibitory concentration (MIC), disk diffusion method. It is filed as cell-based. The note with it: disks of 50 to 3.12 µg, 42-120 hrs at room temperature.
Description: as §1, §2, §3, §4, §5

Assay [17] relates to Cladosporium cucumerinum. The note with it: TLC bioassay; cited from earlier work.

As to “3-O-α-rhamnopyranosyl-rhamnopyranosyl-glucopyranosyl-glucoronopyranosylgluco-pyrano side 16 α-hydroxy-13, 28-epoxy oleanane [Compound 1]”, the MIC is given as 6.25 -12.5 µg. disk^-1 in assay [1]; 6.25 -12.5 µg. disk^-1 in assay [2]; 12.5 - 25 µg. disk^-1 in [3]; 25 -50 µg. disk^-1 in assay [4]; 12.5 - 25 µg. disk^-1 in assay [5]; 25 - 50 µg. disk^-1 in [6]. The MIC in assay [7] is reported as 25 - 50 µg. disk^-1. Besides, the zones of inhibition is given as 9 mm in assay [8]; 9 mm in assay [9]; 14 mm in [10]; 10 mm in [11]; 14 mm in assay [12]; 12 mm in assay [13]. Further, the zones of inhibition in assay [14] is reported as 13 mm; in assay [15] it was 4 mm.

For `C[C@@H]1[C@H](O)[C@@H](C)/C=C/C=C/C=C/C=C/C=C/C=C/C=C/[C@H](O[C@@H]2O[C@H](C)[C@@H](O)[C@H](N)[C@@H]2O)C[C@@H]2O[C@](O)(C[C@@H](O)C[C@@H](O)[C@H](O)CC[C@@H](O)C[C@@H](O)CC(=O)O[C@H]1C)C[C@H](O)[C@H]2C(=O)O` [Amphotericin B, reference compound], the MIC in [1] is on record as 3.12 - 6.25 µg. disk^-1; in assay [2] it was 3.12 - 6.25 µg. disk^-1; in [3], 6.25 -12.5 µg. disk^-1; in assay [4] it was 12.5 -25 µg. disk^-1; in [5], 6.25 - 12.5 µg. disk^-1; in [6], 6.25 - 12.5 µg. disk^-1. For the same compound, the MIC in assay [7] was 6.25 -12.5 µg. disk^-1; in [16], 12.5 -25 µg. disk^-1.

As to `C[C@@H]1[C@H](O)[C@@H](C)/C=C/C=C/CC/C=C/C=C/C=C/C=C/C(O[C@H]2O[C@H](C)[C@@H](O)[C@H](N)[C@@H]2O)CC2O[C@](O)(CC(O)C(O)CCC(O)CC(O)CC(O)CC(=O)O[C@H]1C)CC(O)C2C(=O)O` (some centres unmarked) [Nystatin], the values for the MIC in assay [1] and in assay [2] were 6.25 -12.5 µg. disk^-1 and 6.25 - 12.5 µg. disk^-1, respectively.

Sakurasaponin: the antifungal at in assay [17] is given as 1 µg.

Source of the values: patent publication EP1373298B1, “A COMPOSITION CONTAINING NOVEL COMPOUND CORNICULATONIN HAVING ANTIFUNGI PROPERTIES AND A PROCESS FOR PREPARING THE SAME” (COUNCIL OF SCIENTIFIC AND INDUSTRIAL RESEARCH, priority 2001, dated 2002).
